Test results published in patent publication US11787785B2 (NOVARTIS AG, priority 2021, dated 2023).

Biological target: T1, WIZ protein (HiBit-WIZ fusion protein) (Homo sapiens, UniProt O95785+Q96SW2)
T1 construct: expressed in transfected cells
Experiment: Quantification of WIZ protein levels in HiBit tag fusion protein assay (WIZ HiBit assay in 293T cells)
Format: cell-based
Conditions: for Dmax at 25 µM / remaining activity at 25 µM: HEK-293T, 293T cells; for Dmax at 25 µM: 100 − Amax, read-out: % degradation of WIZ (100 − Amax); for remaining activity at 25 µM: DMSO-normalized, curve-fitted percentage of WIZ-HiBit remaining at 25 uM, read-out: WIZ Amax; for DC50: WIZ HiBit assay in 293T cells, 10-point, 5-fold dose response, highest concentration 25 μM, about 18 hours, read-out: WIZ AC50
Protocol: The HiBit system from Promega was used to develop high-throughput and quantitative assays to measure changes in WIZ protein levels in response to compounds. The HiBit tag was derived from a split Nanoluciferase and has the following protein sequence: […] (SEQ ID NO: 1). The complementary fragment of Nanoluciferase (known as LgBit, from Promega), was added to the HiBit tag to form an active Nanoluciferase enzyme whose activity can be precisely measured. In this way, the levels of a fusion protein with the HiBit tag can be quantified in cell lysates.
Lentiviral vectors, based on the Invitrogen™ pLenti6.2/V5 DEST backbone were constructed that places the HiBit tag upstream of WIZ and expressed the fusion protein from an HSVTK promotor.
To ensure moderate and consistent expression of the HiBit-WIZ fusion protein across all cells in the population, stable cell lines were constructed from cells harboring a single copy of the construct. Lentivirus packaged with the constructs were made using the ViraPower™ kit from Invitrogen™. 293T cells from ATCC (Catalog number: CRL-3216), were infected with the virus at low multiplicity of infection and selected by 5 μg/mL blasticidin in culture media for 2 weeks.
The levels of HiBit-WIZ tagged fusion proteins in compound-treated cell lines were measured as follows:
On day 1, cells were diluted to 1.0×10^6 cells/ml in normal growth medium. 20 μL of cell suspension were plated in each well of a solid white 384-well plate. Plates were incubated overnight in a 37° C. and 5% CO2 humidified tissue culture incubator.
On day 2, serial dilutions of compounds were made in 384-well plates. Compound plates were set up with DMSO in columns 1, 2, 23, 24, and 10-point compound dilution series in column 3-12 and column 13-22. 10 mM stock solution of compound were placed into column 3 or 13 and a 1:5 serial dilution was carried out until there was a 10-point dilution series per compound. 50 nL of diluted compounds were transferred into the plated cells by Echo® (Labcyte) acoustic transfer. The highest concentration of compound was 25 μM. Plates were incubated overnight (about 18 hours) in a 37° C. and 5% CO2 humidified tissue culture incubator.
On day 3, plates were removed from the incubator and allowed to equilibrate at room temperature for 60 minutes. HiBit substrate (Nano-Glo® HiBit Lytic Detection System, Promega Catalogue number: N3050) was added as described by the manufacturers protocols. Plates were incubated at room temperature for 30 minutes and luminescence was read using an EnVision® reader (PerkinElmer®). Data was analyzed and visualized using the Spotfire® software package.
WIZ Degradation Activity of Compounds (Table 1)
WIZ Amax reflects the DMSO-normalized, curve-fitted percentage of WIZ-HiBit remaining at 25 uM. It was calculated by normalizing […] controls to 100%, parametric curve fitting of the dose response data (10-point, 5-fold), followed by calculation of response at 25 uM using the fitted equation (nd=not determined).

T1 sequence (O95785 whole entry, the tested form may be a part): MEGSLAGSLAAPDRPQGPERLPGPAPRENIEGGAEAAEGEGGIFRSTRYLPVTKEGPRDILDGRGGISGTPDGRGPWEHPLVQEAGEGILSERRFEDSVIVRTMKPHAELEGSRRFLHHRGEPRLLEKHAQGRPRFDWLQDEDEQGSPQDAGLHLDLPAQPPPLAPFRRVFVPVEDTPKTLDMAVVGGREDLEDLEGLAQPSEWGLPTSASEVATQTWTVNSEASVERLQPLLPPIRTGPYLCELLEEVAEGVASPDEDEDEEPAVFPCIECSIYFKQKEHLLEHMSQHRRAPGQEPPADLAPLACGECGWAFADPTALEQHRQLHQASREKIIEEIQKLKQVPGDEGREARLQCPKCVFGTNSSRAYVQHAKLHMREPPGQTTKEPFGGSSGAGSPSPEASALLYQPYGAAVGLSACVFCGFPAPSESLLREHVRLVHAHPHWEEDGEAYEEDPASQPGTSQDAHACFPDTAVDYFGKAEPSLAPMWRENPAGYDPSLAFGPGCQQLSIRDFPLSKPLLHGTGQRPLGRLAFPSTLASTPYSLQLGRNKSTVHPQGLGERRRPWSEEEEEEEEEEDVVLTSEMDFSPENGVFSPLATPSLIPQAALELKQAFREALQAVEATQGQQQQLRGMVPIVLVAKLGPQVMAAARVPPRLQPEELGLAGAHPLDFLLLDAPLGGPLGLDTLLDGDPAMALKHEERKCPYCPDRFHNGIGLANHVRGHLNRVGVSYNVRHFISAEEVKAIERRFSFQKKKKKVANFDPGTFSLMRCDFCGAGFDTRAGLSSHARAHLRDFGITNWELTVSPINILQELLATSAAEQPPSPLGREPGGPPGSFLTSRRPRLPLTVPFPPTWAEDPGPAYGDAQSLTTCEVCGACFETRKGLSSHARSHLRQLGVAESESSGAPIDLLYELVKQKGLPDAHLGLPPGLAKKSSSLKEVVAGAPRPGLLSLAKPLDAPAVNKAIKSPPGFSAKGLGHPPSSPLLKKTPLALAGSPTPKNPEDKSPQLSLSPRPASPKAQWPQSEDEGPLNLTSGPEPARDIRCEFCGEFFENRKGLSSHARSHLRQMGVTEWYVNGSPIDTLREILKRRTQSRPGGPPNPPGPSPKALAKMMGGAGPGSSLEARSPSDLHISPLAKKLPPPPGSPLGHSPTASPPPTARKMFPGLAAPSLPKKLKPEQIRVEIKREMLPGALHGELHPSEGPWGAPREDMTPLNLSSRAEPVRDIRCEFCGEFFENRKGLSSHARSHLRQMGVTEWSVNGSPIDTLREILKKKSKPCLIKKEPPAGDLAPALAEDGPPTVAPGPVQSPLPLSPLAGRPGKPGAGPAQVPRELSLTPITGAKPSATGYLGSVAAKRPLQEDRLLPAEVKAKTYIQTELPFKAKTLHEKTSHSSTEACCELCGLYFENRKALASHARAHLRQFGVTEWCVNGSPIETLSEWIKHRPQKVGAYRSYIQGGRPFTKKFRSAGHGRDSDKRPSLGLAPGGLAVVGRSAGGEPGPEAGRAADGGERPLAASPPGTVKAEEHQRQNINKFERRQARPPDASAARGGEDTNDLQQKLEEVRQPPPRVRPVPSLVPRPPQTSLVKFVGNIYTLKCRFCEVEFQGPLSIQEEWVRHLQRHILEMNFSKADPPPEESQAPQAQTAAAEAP
T1 sequence (Q96SW2 whole entry, the tested form may be a part): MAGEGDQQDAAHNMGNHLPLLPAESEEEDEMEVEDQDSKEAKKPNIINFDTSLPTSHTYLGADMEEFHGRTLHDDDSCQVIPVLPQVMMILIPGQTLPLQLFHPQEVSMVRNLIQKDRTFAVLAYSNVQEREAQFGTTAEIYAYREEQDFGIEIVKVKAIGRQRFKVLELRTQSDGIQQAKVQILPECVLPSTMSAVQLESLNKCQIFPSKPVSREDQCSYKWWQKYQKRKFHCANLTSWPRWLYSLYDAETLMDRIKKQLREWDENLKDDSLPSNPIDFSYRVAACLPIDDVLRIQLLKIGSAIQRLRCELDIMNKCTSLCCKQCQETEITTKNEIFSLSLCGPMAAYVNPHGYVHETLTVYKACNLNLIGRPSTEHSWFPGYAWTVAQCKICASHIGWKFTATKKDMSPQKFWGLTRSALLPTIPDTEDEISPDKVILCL
T1 sequence (Q16531 whole entry partner, the tested form may be a part): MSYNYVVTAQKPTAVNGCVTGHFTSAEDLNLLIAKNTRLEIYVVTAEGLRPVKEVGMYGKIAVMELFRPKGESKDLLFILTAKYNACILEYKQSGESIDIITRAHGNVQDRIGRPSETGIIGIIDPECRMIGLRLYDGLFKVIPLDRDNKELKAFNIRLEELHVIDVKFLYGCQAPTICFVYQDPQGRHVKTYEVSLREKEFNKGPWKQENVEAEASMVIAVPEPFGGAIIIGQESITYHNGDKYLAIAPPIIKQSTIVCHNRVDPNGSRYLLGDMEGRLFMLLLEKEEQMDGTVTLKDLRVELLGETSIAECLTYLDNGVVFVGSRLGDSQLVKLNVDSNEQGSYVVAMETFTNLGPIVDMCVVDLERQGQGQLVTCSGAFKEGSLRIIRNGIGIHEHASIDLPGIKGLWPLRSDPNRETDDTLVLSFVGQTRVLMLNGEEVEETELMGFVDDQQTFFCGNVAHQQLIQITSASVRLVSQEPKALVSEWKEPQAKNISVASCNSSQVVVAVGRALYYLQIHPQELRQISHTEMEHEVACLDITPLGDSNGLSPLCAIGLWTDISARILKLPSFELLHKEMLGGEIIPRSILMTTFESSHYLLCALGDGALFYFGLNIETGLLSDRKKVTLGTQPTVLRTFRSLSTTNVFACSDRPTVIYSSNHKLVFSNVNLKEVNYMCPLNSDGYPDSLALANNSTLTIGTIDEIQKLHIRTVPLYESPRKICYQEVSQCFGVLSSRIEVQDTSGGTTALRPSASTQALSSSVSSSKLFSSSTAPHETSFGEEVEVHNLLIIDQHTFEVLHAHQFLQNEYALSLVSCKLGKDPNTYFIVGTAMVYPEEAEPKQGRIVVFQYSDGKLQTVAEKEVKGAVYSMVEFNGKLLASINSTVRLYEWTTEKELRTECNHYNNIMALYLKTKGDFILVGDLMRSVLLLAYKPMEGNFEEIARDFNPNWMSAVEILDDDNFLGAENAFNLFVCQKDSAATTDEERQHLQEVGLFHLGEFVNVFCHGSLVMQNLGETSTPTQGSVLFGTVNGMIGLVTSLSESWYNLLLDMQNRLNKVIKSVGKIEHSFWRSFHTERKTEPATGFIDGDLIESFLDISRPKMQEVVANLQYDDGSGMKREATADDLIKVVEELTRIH

SMILES | Dmax at 25 µM [%] | remaining activity at 25 µM [%] | DC50 [nM]
O=C1CCN(c2cnn3ccc(CC4CCN(Cc5cccc(OC(F)(F)F)c5)CC4)cc23)C(=O)N1 [Example 27, 1-(5-((1-(3-(trifluoromethoxy)benzyl)piperidin-4-yl)methyl)pyrazolo[1,5-a]pyridin-3-yl)dihydropyrimidine-2,4(1H,3H)-dione] | 76 | 24 | 46
O=C1CCN(c2cnn3ccc(CC4CCN(S(=O)(=O)C5CCCCC5)CC4)cc23)C(=O)N1 [Example 81] | 92 | 8 | 15
O=C1CCN(c2cnn3ccc(CC4CCN(C(=O)OC5CCCCC5)CC4)cc23)C(=O)N1 [Example 96] | 42 | 58 | > 25000
CC(CN1CCC(Cc2ccn3ncc(N4CCC(=O)NC4=O)c3c2)CC1)C1CCCCC1 (stereo not drawn) [Example 10, 1-(5-((1-(2-cyclohexylpropyl)piperidin-4-yl)methyl)pyrazolo[1,5-a]pyridin-3-yl)dihydropyrimidine-2,4(1H,3H)-dione] | 84 | 16 | 4
C=C(C)CN1CCC(Cc2ccn3ncc(N4CCC(=O)NC4=O)c3c2)CC1 [Example 39a, 1-(5-((1-(2-methylallyl)piperidin-4-yl)methyl)pyrazolo[1,5-a]pyridin-3-yl)dihydropyrimidine-2,4(1H,3H)-dione] | 68 | 32 | 87
C[C@H]1C[C@H](Cc2ccn3ncc(N4CCC(=O)NC4=O)c3c2)CCN1C[C@H]1CC[C@H](C(F)(F)F)CC1 [Example 305, 1-(5-(((2S,4R)-2-methyl-1-(((1r,4S)-4-(trifluoromethyl)cyclohexyl)methyl)piperidin-4-yl)methyl)pyrazolo[1,5-a]pyridin-3-yl)dihydropyrimidine-2,4(1H,3H)-dione] | 85 | 15 | 2
O=C1CCN(c2cnn3ccc(CN4CCN(CC5CCCCC5)C(=O)C4)cc23)C(=O)N1 [Example 242, 1-(5-((4-(cyclohexylmethyl)-3-oxopiperazin-1-yl)methyl)pyrazolo[1,5-a]pyridin-3-yl)dihydropyrimidine-2,4(1H,3H)-dione] | 7 | 93 | 1600
O=C1CCN(c2cnn3ccc(CC4CCN(CC5CC5)CC4)cc23)C(=O)N1 [Example 5, 1-(5-((1-(cyclopropylmethyl)piperidin-4-yl)methyl)pyrazolo[1,5-a]pyridin-3-yl)dihydropyrimidine-2,4(1H,3H)-dione] | 89 | 11 | 204
CC(C)CS(=O)(=O)N1CCC(Cc2ccn3ncc(N4CCC(=O)NC4=O)c3c2)CC1 [Example 87] | 79 | 21 | 25
CC(C)(C1CCOCC1)N1CCN(Cc2ccn3ncc(N4CCC(=O)NC4=O)c3c2)CC1 [Example 182, 1-(5-((4-(2-(tetrahydro-2H-pyran-4-yl)propan-2-yl)piperazin-1-yl)methyl)pyrazolo[1,5-a]pyridin-3-yl)dihydropyrimidine-2,4(1H,3H)-dione] | 67 | 33 | 199
C[C@H]1C[C@H](Cc2ccn3ncc(N4CCC(=O)NC4=O)c3c2)CCN1CC1CC(F)(F)C1 [Example 152, 1-(5-(((2S,4R)-1-((3,3-difluorocyclobutyl)methyl)-2-methylpiperidin-4-yl)methyl)pyrazolo[1,5-a]pyridin-3-yl)dihydropyrimidine-2,4(1H,3H)-dione] | 81 | 19 | 910
Cc1ccc(CN2CCC(Cc3ccn4ncc(N5CCC(=O)NC5=O)c4c3)CC2)cc1 [Example 47, 1-(5-((1-(4-methylbenzyl)piperidin-4-yl)methyl)pyrazolo[1,5-a]pyridin-3-yl)dihydropyrimidine-2,4(1H,3H)-dione] | 69 | 31 | 157
O=C1CCN(c2cnn3ccc(CC4CCCN(CC5CCCCC5)CC4)cc23)C(=O)N1 (stereo not drawn) [Example 272, 1-(5-((1-(cyclohexylmethyl)azepan-4-yl)methyl)pyrazolo[1,5-a]pyridin-3-yl)dihydropyrimidine-2,4(1H,3H)-dione] | 69 | 31 | 25
CC(C)(C1CCC(F)(F)CC1)N1CCC(Cc2ccn3ncc(N4CCC(=O)NC4=O)c3c2)CC1 [Example 140, 1-(5-((1-(2-(4,4-difluorocyclohexyl)propan-2-yl)piperidin-4-yl)methyl)pyrazolo[1,5-a]pyridin-3-yl)dihydropyrimidine-2,4(1H,3H)-dione] | 90 | 10 | 7
CN1CCC(Cc2ccn3ncc(N4CCC(=O)NC4=O)c3c2)CC1 [Example 49, 1-(5-((1-methylpiperidin-4-yl)methyl)pyrazolo[1,5-a]pyridin-3-yl)dihydropyrimidine-2,4(1H,3H)-dione] | 66 | 34 | 2790
CC(C)CN1CCN(Cc2ccn3ncc(-n4ccc(=O)[nH]c4=O)c3c2)C[C@@H]1C [Example 357, (S)-1-(5-((4-isobutyl-3-methylpiperazin-1-yl)methyl)pyrazolo[1,5-a]pyridin-3-yl)pyrimidine-2,4(1H,3H)-dione] | 85 | 15 | 124
CC(c1cccnc1)N1CCC(Cc2ccn3ncc(N4CCC(=O)NC4=O)c3c2)CC1 (stereo not drawn) [Example 21, 1-(5-((1-(1-(pyridin-3-yl)ethyl)piperidin-4-yl)methyl)pyrazolo[1,5-a]pyridin-3-yl)dihydropyrimidine-2,4(1H,3H)-dione] | 78 | 22 | 25
CC(C)CCN1CCN(Cc2ccn3ncc(N4CCC(=O)NC4=O)c3c2)C[C@@H]1C [Example 204] | 84 | 16 | 51
Cc1cn(-c2cnn3ccc(C[C@@H]4CCN(CC(C)C)[C@@H](C)C4)cc23)c(=O)[nH]c1=O [Example 347, 1-(5-(((2S,4R)-1-isobutyl-2-methylpiperidin-4-yl)methyl)pyrazolo[1,5-a]pyridin-3-yl)-5-methylpyrimidine-2,4(1H,3H)-dione] | 89 | 11 | 378
O=C1CCN(c2cnn3ccc(CC4CCN(Cc5ccncc5)CC4)cc23)C(=O)N1 [Example 28, 1-(5-((1-(pyridin-4-ylmethyl)piperidin-4-yl)methyl)pyrazolo[1,5-a]pyridin-3-yl)dihydropyrimidine-2,4(1H,3H)-dione] | 75 | 25 | 105
COC(=O)N1CCC(Cc2ccn3ncc(N4CCC(=O)NC4=O)c3c2)CC1 [Example 93] | 62 | 38 | 6520
O=C1CCN(c2cnn3ccc(CC4CCN(S(=O)(=O)N5CCCC5)CC4)cc23)C(=O)N1 [Example 297, 1-(5-((1-(pyrrolidin-1-ylsulfonyl)piperidin-4-yl)methyl)pyrazolo[1,5-a]pyridin-3-yl)dihydropyrimidine-2,4(1H,3H)-dione] | 68 | 32 | 29
CC(C)CN1CCN(Cc2ccn3ncc(N4CCC(=O)NC4=O)c3c2)CC1 [Example 186, 1-(5-((4-isobutylpiperazin-1-yl)methyl)pyrazolo[1,5-a]pyridin-3-yl)dihydropyrimidine-2,4(1H,3H)-dione] | 79 | 21 | 76
C[C@H]1C[C@H](Cc2ccn3ncc(N4CCC(=O)NC4=O)c3c2)CCN1CCC1CCOCC1 [Example 148] | 86 | 14 | 63
